# Legend:
# rat eye tissue = assay: Histopathological study in rat eye tissue (hematoxylin and eosin, TUNEL); assay type: in vivo, Sprague-Dawley (SD) rats; settings: 10.0 mg/kg/day intravenous three times a week for 2 weeks; eyes collected 24 hours after final dose
# [1] = Quantification of plasma, tumor and retinal tissue exposure in tumor-bearing rats; assay type: in vivo, F344 nude rats; settings: intravenous administration, tumor-bearing rats
# Procedure: After the administration, plasma, the retina, and tumor were collected according to a sampling schedule. The retina or tumor samples were homogenized in phosphate-buffered saline. The plasma and the homogenized samples were analyzed by liquid chromatography-tandem mass spectrometry or high-performance liquid chromatography. The pharmacokinetics of the compound 1 were calculated by use of the non-compartmental analysis method (Methods Mol Biol 2012; 929: 377-89).
compound,measurement,setting,value
"CCNC(=O)c1noc(-c2cc(C(C)C)c(O)cc2O)c1-c1ccc(CN2CCOCC2)cc1 [NVP-AUY922, reference compound]",histopathological change in the outer nuclear layer of the retina,rat eye tissue,marked degeneration and disarrangement
same,number of TUNEL-positive apoptotic cells,rat eye tissue,considerably increase
same,presence in the retina 24 hours after administration,[1],detected from the retina even 24 hours after administration
